Reference: patent US12492173B2, “Herbicidal substituted N-tetrazolyl aryl carboxamides” (Bayer Aktiengesellschaft, priority 2019, dated 2025)

How the values were obtained:
Type in all cases: in vivo
[1] = test system: Matricaria inodora; assay: Pre-emergence herbicidal action, MATIN; design: key to Herbicidal action against MATIN: % activity: 100 = plants have died, 0 = like control plants; conditions: for Herbicidal action against MATIN: comparative experiment, 20 g of a.i./ha; for herbicidal activity MATIN: dosage 320 g/ha, scored visually after 3 weeks vs untreated controls (100% = plants have died)
How it was run: (§1)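 Herbicidal activity is expressed in percent, scored by eye after a 3-week greenhouse period, with 0% matching untreated plants and 100% meaning death. Compounds, as wettable powders or emulsion concentrates, are applied pre-emergence to the covering soil.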

[2] = test system: Echinochloa crus-galli; assay: Pre-emergence herbicidal action, ECHCG; design: key to Herbicidal action against ECHCG: % activity: 100 = plants have died, 0 = like control plants; conditions: for herbicidal activity ECHCG: dosage 320 g/ha, scored visually after 3 weeks vs untreated controls (100% = plants have died); for Herbicidal action against ECHCG: comparative experiment, 20 g of a.i./ha
How it was run: as §1

[3] = test system: Amaranthus retroflexus; assay: Post-emergence herbicidal action, AMARE; design: key: % herbicidal action vs untreated; 100 = plants died, 0 = like control; conditions: for Herbicidal action against AMARE: comparative experiment, 5 g of a.i./ha
How it was run: (§2)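 Percent herbicidal effect was rated visually about 3 weeks after treatment, relative to untreated plants (0% = like control, 100% = dead). Compounds, formulated as WP or EC, went on as aqueous spray (600–800 l/ha, 0.2% wetting agent) to one-leaf-stage plants 2–3 weeks post-sowing in sandy loam.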

[4] = test system: Avena fatua; assay: Post-emergence herbicidal action, AVEFA; design: key: % herbicidal action vs untreated; 100 = plants died, 0 = like control; conditions: for Herbicidal action against AVEFA: comparative experiment, 5 g of a.i./ha
How it was run: as §2

[5] = test system: Pharbitis purpurea; assay: Pre-emergence herbicidal action, PHBPU; conditions: dosage 320 g/ha, scored visually after 3 weeks vs untreated controls (100% = plants have died)
How it was run: as §1

[6] = test system: Setaria viridis; assay: Pre-emergence herbicidal action, SETVI; design: key to Herbicidal action against SETVI: % activity: 100 = plants have died, 0 = like control plants; conditions: for Herbicidal action against SETVI: comparative experiment, 20 g of a.i./ha; for herbicidal activity SETVI: dosage 320 g/ha, scored visually after 3 weeks vs untreated controls (100% = plants have died)
How it was run: as §1

SMILES | Herbicidal action against MATIN [1] | herbicidal activity MATIN [1] | herbicidal activity ECHCG [2] | herbicidal action AMARE ([3]; post-emergence, dosage 80 g/ha) | herbicidal action AVEFA ([4]; post-emergence, dosage 80 g/ha) | herbicidal activity PHBPU [5] | Herbicidal action against SETVI [6] | herbicidal activity SETVI [6] | Herbicidal action against ECHCG [2] | herbicidal action AMARE ([3]; Dosage 80 g/ha) | Herbicidal action against AMARE ([3]; post-emergence) | herbicidal action AVEFA ([4]; Dosage 80 g/ha) | Herbicidal action against AVEFA ([4]; post-emergence)
Cn1nnnc1NC(=O)c1ccc(I)c(C[S+](C)[O-])c1Cl (racemic) [Example 1-363] | 90 | 100% | 100% | 100% | 100% | 100% | 90 | 100% |  |  |  |  | 
CCn1nnnc1NC(=O)c1ccc(C(F)(F)F)c(CS(=O)(=O)CC)c1Br [Example 2-385] |  | 100% | 100% | 90% | 90% | 80% |  | 100% |  |  |  |  | 
CCSCc1c(C(F)(F)F)ccc(C(=O)Nc2nnnn2C)c1SCC [Example 1-182] | 80 | 100% | 100% |  |  | 80% |  | 100% | 80 | 90 | 80 | 80 | 
COCC[S+]([O-])Cc1c(C(F)(F)F)ccc(C(=O)Nc2nnnn2C)c1Cl (racemic) [Example 1-306] |  | 100% | 100% |  |  | 90% |  | 90% |  | 100 |  | 80 | 
Cn1nnnc1NC(=O)c1ccc(C(F)F)c(CS(C)(=O)=O)c1Cl [Example 1-322] |  | 100% | 100% | 80% | 80% | 100% |  | 100% |  |  |  |  | 
CCn1nnnc1NC(=O)c1ccc(C(F)(F)F)c(CSC)c1Cl [Example 2-296] |  | 100% | 100% | 100% | 100% | 90% |  | 100% |  |  |  |  | 
C=CCSCc1c(C(F)(F)F)ccc(C(=O)Nc2nnnn2CCC)c1Cl [Example 3-308] |  | 100% | 100% |  |  | 100% |  | 100% |  | 100 |  | 100 | 
Cn1nnnc1NC(=O)c1ccc(C(F)(F)F)c(C[S+]([O-])C2CC2)c1Cl (racemic) [Example 1-303] |  | 100% | 100% | 100% | 100% | 100% |  | 100% |  |  |  |  | 
CCn1nnnc1NC(=O)c1ccc(I)c(C[S+](C)[O-])c1Cl (stereo not shown) [Example 2-363] |  | 100% | 100% |  |  | 80% |  | 100% |  | 100 |  | 90 | 
Cn1nnnc1NC(=O)c1ccc(C(F)(F)F)c(CS(=O)(=O)C2CC2)c1Cl [Example 1-304] |  | 100% | 100% | 100% | 100% | 100% |  | 100% |  |  |  |  | 
Cn1nnnc1NC(=O)c1ccc(C(F)(F)F)c(CSCC(F)(F)F)c1Cl [Example 1-311] |  | 100% | 100% |  |  | 100% |  | 100% |  | 100 |  | 100 | 
CCCn1nnnc1NC(=O)c1ccc(C(F)(F)F)c(CSCC2CC2)c1Cl [Example 3-314] |  | 100% | 90% | 100% | 100% | 80% |  | 100% |  |  |  |  | 
CCn1nnnc1NC(=O)c1ccc(C(F)F)c(CS(C)(=O)=O)c1Cl [Example 2-322] |  | 90% | 100% | 80% | 80% | 100% |  | 100% |  |  |  |  | 
CCCn1nnnc1NC(=O)c1ccc(C(F)(F)F)c(C[S+]([O-])CC)c1Br (stereo not shown) [Example 3-384] |  | 100% | 100% |  |  | 90% |  | 100% |  | 90 |  | 90 | 
CCCn1nnnc1NC(=O)c1ccc(C(F)(F)F)c(CS(C)(=O)=O)c1SC [Example 3-163] |  | 100% | 100% |  |  | 80% |  | 100% |  | 90 |  | 90 | 
CCn1nnnc1NC(=O)c1ccc(C(F)(F)F)c(C[S+]([O-])CC2CC2)c1Cl (stereo not shown) [Example 2-315] |  | 100% | 100% |  |  | 90% |  | 100% |  | 100 |  | 90 | 
Cn1nnnc1NC(=O)c1ccc(C(F)(F)F)c(CS(=O)(=O)CC2CC2)c1Cl [Example 1-316] |  | 100% | 100% |  |  | 90% |  | 100% |  | 100 |  | 100 | 
Cn1nnnc1NC(=O)c1ccc(C(F)(F)F)c(CS(C)(=O)=O)c1C(F)(F)C(F)(F)F [Example 1-552] |  | 100% | 100% |  |  | 90% |  | 100% |  | 90 |  | 90 | 
CSCc1c(I)ccc(C(=O)Nc2nnnn2C)c1Cl [Example 1-362] | 70 | 100% | 100% | 100% | 100% | 80% | 90 | 100% | 80 |  | 100 |  | 
CCCn1nnnc1NC(=O)c1ccc(C(F)F)c(CS(C)(=O)=O)c1Cl [Example 3-322] |  | 100% | 100% |  |  | 90% |  | 100% |  | 90 |  | 80 | 
CCn1nnnc1NC(=O)c1ccc(C(F)F)c(CSC)c1Cl [Example 2-320] |  | 100% | 100% |  |  | 80% |  | 100% |  | 100 |  | 90 | 
CSCc1c(C(F)(F)F)ccc(C(=O)Nc2nnnn2C)c1C [Example 1-83] |  | 100% | 100% | 100% | 90% | 80% |  | 100% |  |  |  |  | 
Cn1nnnc1NC(=O)c1ccc(C(F)(F)F)c(CSC2CC2)c1Cl [Example 1-302] |  | 100% | 100% | 100% | 100% | 100% |  | 100% |  |  |  |  | 
CCn1nnnc1NC(=O)c1ccc(C(F)(F)F)c(C[S+]([O-])CC)c1Cl (stereo not shown) [Example 2-300] |  | 100% | 100% | 100% | 100% | 100% |  | 100% |  |  |  |  | 
CCCn1nnnc1NC(=O)c1ccc(C(F)F)c(CSC)c1SC [Example 3-170] |  | 100% | 100% |  |  | 80% |  | 100% |  | 100 |  | 80 | 
CCSCc1c(C(F)F)ccc(C(=O)Nc2nnnn2C)c1Cl [Example 1-323] |  | 90% | 100% | 90% | 100% | 100% |  | 100% |  |  |  |  | 70
CCCn1nnnc1NC(=O)c1ccc(C(F)(F)F)c(C[S+](C)[O-])c1SC (stereo not shown) [Example 3-162] |  | 100% | 100% | 100% | 90% | 90% |  | 100% |  |  |  |  | 
CCSCc1c(C(F)(F)F)ccc(C(=O)Nc2nnnn2C)c1Cl [Example 1-299] | 90 | 100% | 100% | 100% | 90% | 90% | 90 | 100% |  |  |  |  | 80
